In ChEMBL document CHEMBL1144741, “Review of cytotoxic cephalostatins and ritterazines: isolation and synthesis” (2008):

These molecules were tested on P388 (assay: Antitumor activity against mouse P388 cells). Conditions: read-out: ED50 (the source's name).
Assay type: functional

Compared with C[C@H]1[C@@H](O)C2(Oc3cc4c(c5c3[C@H](C[C@H]5O)[C@@H]2C)CC[C@H]2Cc3nc5c(nc3C[C@]42C)C[C@@H]2CC[C@H]3C4=C[C@@H]6O[C@@]7(C[C@]6(O)[C@@]4(C)[C@H](O)C[C@@H]3[C@@]2(C)C5)O[C@](C)(CO)C[C@H]7O)OC1(C)C (some centres not stated) [CEPHALOSTATIN 5], C[C@H]1[C@H]2C[C@@H](O)c3c4c(cc(c32)OC12OC(C)(C)C[C@H]2O)[C@@]1(C)Cc2nc3c(nc2C[C@@H]1CC4)C[C@@]1(C)[C@@H](CC[C@H]2C4=C[C@@H]5O[C@@]6(C[C@]5(O)[C@@]4(C)[C@H](O)C[C@@H]21)O[C@](C)(CO)C[C@H]6O)C3 (some centres not stated) [CEPHALOSTATIN 6] is 18-fold lower in EC50: 42.5 nM for the first, 2.3 nM for the second. The second is the more potent here.

CO[C@H]1c2nc3c(nc2C[C@@H]2CC[C@H]4C5=C[C@@H]6O[C@]7(O[C@](C)(CO)C[C@H]7O)[C@@H](C)[C@]6(O)[C@@]5(C)[C@H](O)C[C@@H]4[C@]21C)C[C@@]1(C)[C@@H](CC[C@H]2C4=CC[C@@H]5[C@H](C)[C@@]6(OC[C@]45C(=O)C[C@@]21O)OC(C)(C)C[C@H]6O)C3 [CEPHALOSTATIN 10] and C[C@@H]1[C@H]2CC=C3[C@H]4CC[C@H]5Cc6nc7c(nc6C[C@]5(C)[C@@]4(O)CC(=O)[C@@]32CO[C@]12OC(C)(C)C[C@H]2O)C[C@@H]1CC[C@H]2C3=C[C@@H]4O[C@]5(O[C@](C)(CO)C[C@H]5O)[C@@H](C)[C@]4(O)[C@@]3(C)[C@H](O)C[C@@H]2[C@@]1(C)C7 [CEPHALOSTATIN 17] are within 1.5-fold of each other in EC50: 3.2 nM for the first, 4.4 nM for the second.

Going from CO[C@H]1c2nc3c(nc2C[C@@H]2CC[C@H]4C5=CC[C@@H]6[C@@H](C)[C@]7(OC[C@]56C(=O)C[C@@H]4[C@]21C)OC(C)(C)C[C@H]7O)C[C@@]1(C)[C@@H](CC[C@H]2C4=C[C@@H]5O[C@]6(O[C@](C)(CO)C[C@H]6O)[C@@H](C)[C@]5(O)[C@@]4(C)[C@H](O)C[C@@H]21)C3 [CEPHALOSTATIN 11] to CO[C@H]1c2nc3c(nc2C[C@@H]2CC[C@H]4C5=CC[C@@H]6[C@H](C)[C@@]7(OC[C@]56C(=O)C[C@@H]4[C@]21C)OC(C)(C)C[C@H]7O)C[C@@]1(C)[C@@H](CC[C@H]2C4=C[C@@H]5O[C@]6(O[C@](C)(CO)C[C@H]6O)[C@@H](C)[C@]5(O)[C@@]4(C)[C@H](O)C[C@@H]21)C3 [CEPHALOSTATIN 19], the EC50 rises from 2.7 nM to 7.9 nM (2.9-fold). The first is the more potent here.

Compared with C[C@@H]1[C@]2(O[C@H]3C=C4[C@@H]5CC[C@H]6Cc7nc8c(nc7C[C@]6(C)[C@H]5C[C@@H](O)[C@]4(C)[C@]31O)C[C@@H]1CC[C@H]3C4=C[C@@H]5O[C@]6(O[C@](C)(CO)C[C@H]6O)[C@@H](C)[C@]5(O)[C@@]4(C)[C@H](O)C[C@@H]3[C@@]1(C)C8)O[C@](C)(CO)C[C@H]2O [CEPHALOSTATIN 12], C[C@@H]1[C@]2(O[C@H]3C=C4[C@@H]5CC[C@H]6Cc7nc8c(nc7C[C@]6(C)[C@H]5C[C@@H](O)[C@]4(C)[C@]31O)C[C@@H]1CC[C@H]3C4=C[C@@H]5O[C@]6(O[C@](C)(CO)C[C@H]6O)[C@@H](C)[C@]5(O)[C@@]4(C)[C@H](O)C[C@@H]3[C@@]1(C)[C@H]8O)O[C@](C)(CO)C[C@H]2O [CEPHALOSTATIN 13] is 1.6-fold lower in EC50: 76.2 nM for the first, 47.9 nM for the second.

First: C[C@@H]1[C@H]2C[C@@H]3O[C@@]34[C@]3(O)CC[C@H]5Cc6nc7c(nc6C[C@]5(C)C3=CC(=O)[C@]24CO[C@]12OC(C)(C)C[C@H]2O)C[C@@H]1CC[C@H]2C3=C[C@@H]4O[C@]5(O[C@](C)(CO)C[C@H]5O)[C@@H](C)[C@]4(O)[C@@]3(C)[C@H](O)C[C@@H]2[C@@]1(C)C7 [CEPHALOSTATIN 14]
Second: C[C@@H]1[C@H]2C[C@@H]3O[C@@]34[C@]3(O)CC[C@H]5Cc6nc7c(nc6C[C@]5(C)C3=CC(=O)[C@]24CO[C@]12OC(C)(C)[C@@H](C)[C@H]2O)C[C@@H]1CC[C@H]2C3=C[C@@H]4O[C@]5(O[C@](C)(CO)C[C@H]5O)[C@@H](C)[C@]4(O)[C@@]3(C)[C@H](O)C[C@@H]2[C@@]1(C)C7 [CEPHALOSTATIN 15]
The EC50 of the first is 6-fold lower: 4.4 nM for the first, 26.2 nM for the second.

Compared with C[C@@H]1[C@H]2CC=C3[C@@H]4CC[C@H]5Cc6nc7c(nc6C[C@]5(C)[C@@]4(O)CC(=O)[C@@]32CO[C@]12OC(C)(C)C[C@H]2O)C[C@@H]1CC[C@H]2C3=C[C@@H]4O[C@@]5(CC[C@](C)(O)CO5)[C@@H](C)[C@]4(O)[C@@]3(C)[C@H](O)C[C@@H]2[C@@]1(C)C7 [CEPHALOSTATIN 16], CO[C@H]1c2nc3c(nc2C[C@@H]2CC[C@H]4C5=C[C@@H]6O[C@]7(O[C@](C)(CO)C[C@H]7O)[C@@H](C)[C@]6(O)[C@@]5(C)[C@H](O)C[C@@H]4[C@]21C)C[C@@]1(C)[C@@H](CC[C@H]2C4=CC[C@@H]5[C@H](C)[C@@]6(OC[C@]45C(=O)C[C@@H]21)OC(C)(C)C[C@H]6O)C3 [CEPHALOSTATIN 18] is higher in EC50: < 1.1 nM for the first, 4.6 nM for the second.

C[C@@H]1[C@@]2(CC[C@](C)(O)CO2)O[C@H]2C=C3[C@@H]4[C@@H](O)C[C@H]5Cc6nc7c(nc6C[C@]5(C)[C@H]4C[C@@H](O)[C@]3(C)[C@]21O)C[C@@H]1CC[C@@H]2[C@H](CC(=O)[C@]23C[C@@H]2O[C@@]4(CCC(C)(C)O4)[C@@H](C)[C@@H]2[C@]3(C)O)[C@@]1(C)C7 [RITTERAZINE A] and C[C@@H]1[C@@]2(CC[C@](C)(O)CO2)O[C@H]2C=C3[C@@H]4[C@@H](O)C[C@H]5Cc6nc7c(nc6C[C@]5(C)[C@H]4C[C@@H](O)[C@]3(C)[C@]21O)C[C@@H]1CC[C@@H]2[C@H](CC(=O)[C@]23C[C@@H]2O[C@]4(CCC(C)(C)O4)[C@@H](C)[C@@H]2[C@]3(C)O)[C@@]1(C)C7 [RITTERAZINE D] are within 1.5-fold of each other in EC50: 14.2 nM for the first, 17.5 nM for the second.

First: C[C@@H]1[C@@]2(CC[C@](C)(O)CO2)O[C@H]2C=C3[C@@H]4[C@@H](O)C[C@H]5Cc6nc7c(nc6C[C@]5(C)[C@H]4C[C@@H](O)[C@]3(C)[C@]21O)C[C@@H]1CC[C@H]2[C@H]3C[C@@H]4O[C@@]5(CCC(C)(C)O5)C[C@@H]4[C@@]3(C)[C@H](O)C[C@@H]2[C@@]1(C)C7 [RITTERAZINE B]
Second: C[C@@H]1[C@@]2(CC[C@@](C)(CO)O2)O[C@H]2C=C3[C@@H]4[C@@H](O)C[C@H]5Cc6nc7c(nc6C[C@]5(C)[C@H]4C[C@@H](O)[C@]3(C)[C@]21O)C[C@@H]1CC[C@H]2[C@H]3C[C@@H]4O[C@]5(CCC(C)(C)O5)[C@@H](C)[C@@H]4[C@@]3(C)[C@H](O)C[C@@H]2[C@@]1(C)C7 [RITTERAZINE C]
The EC50 of the first is 600-fold lower: 0.17 nM for the first, 102 nM for the second.

In the case of C[C@@H]1[C@@]2(CC[C@](C)(O)CO2)O[C@H]2C=C3[C@@H]4[C@@H](O)C[C@H]5Cc6nc7c(nc6C[C@]5(C)[C@H]4C[C@@H](O)[C@]3(C)[C@]21O)C[C@@H]1CC[C@@H]2[C@H](CC(=O)[C@]23C[C@@H]2O[C@]4(C[C@H](C)C(C)(C)O4)[C@@H](C)[C@@H]2[C@]3(C)O)[C@@]1(C)C7 [RITTERAZINE E], the EC50 is reported as 3.8 nM.
